{
  "source": "patent US11235015B2",
  "about": "“Antiviral Traditional Chinese Medicine composition and preparation method and use i'hereof” (priority 2017, dated 2022)",
  "key": {"[1]": {"tested_on": "avian influenza virus H7N7", "test": "microbe, parasite or virus in culture", "assay_type": "cell-based", "settings": "H7N7, MDCK; for OD value (A): MTT; for inhibition at 39.06 µg/mL / inhibition at 78.12 µg/mL / inhibition at 156.25 µg/mL / IC50: unidentified influenza virus; for inhibition at 39.06 µg/mL / inhibition at 78.12 µg/mL / inhibition at 156.25 µg/mL: H7N7; for IC50: H7N7 virus, MDCK cells"}, "[2]": {"tested_on": "dry yeast induced fever in rats", "test": "Antipyretic effect, dry yeast induced fever in rats, rectal temperature", "assay_type": "in vivo, SD rats"}, "MDCK cells": {"tested_on": "MDCK cells", "test": "Toxicity of the tested substance on MDCK cells, MTT method", "settings": "OD 570 nm, 3 days"}, "[3]": {"tested_on": "avian influenza virus H9N2", "test": "microbe, parasite or virus in culture", "assay_type": "cell-based", "settings": "H9N2, MDCK; for OD value (A): MTT; for inhibition at 39.06 µg/mL / inhibition at 78.12 µg/mL / inhibition at 156.25 µg/mL / IC50: Influenza A virus; for inhibition at 39.06 µg/mL / inhibition at 78.12 µg/mL / inhibition at 156.25 µg/mL: H9N2; for IC50: H9N2 virus, MDCK cells"}, "[4]": {"settings": "39.06 μg/ml, first of 2 experiments"}, "[5]": {"settings": "39.06 μg/ml, second of 2 experiments"}, "[6]": {"settings": "78.12 μg/ml, first of 2 experiments"}, "[7]": {"settings": "78.12 μg/ml, second of 2 experiments"}, "[8]": {"settings": "156.25 μg/ml, first of 2 experiments"}, "[9]": {"settings": "156.25 μg/ml, second of 2 experiments"}},
  "note": "Counter-ions that a name gives are not always drawn.",
  "data": [
    {"compound": "NC12CC3CC(CC(C3)C1)C2", "note": "[Adamantanamine, amantadine hydrochloride]", "values": [
      {"measurement": "OD value (A)", "setting": "[1]; [4]", "value": "0.55 ± 0.04", "unit": "A"},
      {"measurement": "OD value (A)", "setting": "[1]; [5]", "value": "0.57 ± 0.07", "unit": "A"},
      {"measurement": "OD value (A)", "setting": "[1]; [6]", "value": "0.86 ± 0.08", "unit": "A"},
      {"measurement": "OD value (A)", "setting": "[1]; [7]", "value": "0.81 ± 0.04", "unit": "A"},
      {"measurement": "OD value (A)", "setting": "[1]; [8]", "value": "1.01 ± 0.07", "unit": "A"},
      {"measurement": "OD value (A)", "setting": "[1]; [9]", "value": "0.98 ± 0.09", "unit": "A"},
      {"measurement": "inhibition at 39.06 µg/mL", "setting": "[1]; [4]", "value": 36, "unit": "%"},
      {"measurement": "inhibition at 39.06 µg/mL", "setting": "[1]; [5]", "value": 38, "unit": "%"},
      {"measurement": "inhibition at 78.12 µg/mL", "setting": "[1]; [6]", "value": 60, "unit": "%"},
      {"measurement": "inhibition at 78.12 µg/mL", "setting": "[1]; [7]", "value": 55, "unit": "%"},
      {"measurement": "inhibition at 156.25 µg/mL", "setting": "[1]; [8]", "value": 71, "unit": "%"},
      {"measurement": "inhibition at 156.25 µg/mL", "setting": "[1]; [9]", "value": 68, "unit": "%"},
      {"measurement": "IC50", "setting": "[1]; first of 2 experiments", "value": 62, "unit": "µg/mL"},
      {"measurement": "IC50", "setting": "[1]; second of 2 experiments", "value": 66, "unit": "µg/mL"}
    ]},
    {"compound": "CC(=O)Oc1ccccc1C(=O)O", "note": "[Aspirin]", "values": [
      {"measurement": "rectal temperature", "setting": "[2]; 100 mg/kg by gavage 0.5 h and […] after pyrogen, baseline value, 1 h before the injection of pyrogen, n = 5", "value": 37.8, "unit": "°C"},
      {"measurement": "rectal temperature", "setting": "[2]; 100 mg/kg by gavage, 1 h after the injection of pyrogen", "value": 38.0, "unit": "°C"},
      {"measurement": "rectal temperature", "setting": "[2]; 100 mg/kg by gavage, 2 h after the injection of pyrogen", "value": 37.5, "unit": "°C"},
      {"measurement": "rectal temperature", "setting": "[2]; 100 mg/kg by gavage, 3 h after the injection of pyrogen", "value": 37.7, "unit": "°C"},
      {"measurement": "rectal temperature", "setting": "[2]; 100 mg/kg by gavage, 4 h after the injection of pyrogen", "value": 37.8, "unit": "°C"},
      {"measurement": "rectal temperature", "setting": "[2]; 100 mg/kg by gavage, 5 h after the injection of pyrogen", "value": 38.1, "unit": "°C"},
      {"measurement": "rectal temperature", "setting": "[2]; 100 mg/kg by gavage, 6 h after the injection of pyrogen", "value": 38.1, "unit": "°C"},
      {"measurement": "rectal temperature", "setting": "[2]; 100 mg/kg by gavage, 7 h after the injection of pyrogen", "value": 38.3, "unit": "°C"},
      {"measurement": "rectal temperature", "setting": "[2]; 100 mg/kg by gavage, 8 h after the injection of pyrogen", "value": 38.5, "unit": "°C"},
      {"measurement": "rectal temperature", "setting": "[2]; 100 mg/kg by gavage, 9 h after the injection of pyrogen", "value": 38.8, "unit": "°C"},
      {"measurement": "time for which the effect of reducing the body temperature was maintained", "setting": "[2]; 100 mg·kg^−1, starting from […] after the injection of the pyrogen", "value": 4, "unit": "h"}
    ]},
    {"compound": "NC12CC3CC(CC(C3)C1)C2", "note": "[amantadine]", "values": [
      {"measurement": "OD value (A)", "setting": "MDCK cells; 39.06 μg/ml", "value": "1.20 ± 0.04", "unit": "A"},
      {"measurement": "OD value (A)", "setting": "MDCK cells; 78.12 μg/ml", "value": "1.05 ± 0.02", "unit": "A"},
      {"measurement": "OD value (A)", "setting": "MDCK cells; 156.25 μg/ml", "value": "0.96 ± 0.05", "unit": "A"},
      {"measurement": "OD value (A)", "setting": "[3]; [4]", "value": "0.37 ± 0.02", "unit": "A"},
      {"measurement": "OD value (A)", "setting": "[3]; [5]", "value": "0.32 ± 0.03", "unit": "A"},
      {"measurement": "OD value (A)", "setting": "[3]; [6]", "value": "0.64 ± 0.05", "unit": "A"},
      {"measurement": "OD value (A)", "setting": "[3]; [7]", "value": "0.46 ± 0.03", "unit": "A"},
      {"measurement": "OD value (A)", "setting": "[3]; [8]", "value": "0.71 ± 0.07", "unit": "A"},
      {"measurement": "OD value (A)", "setting": "[3]; [9]", "value": "0.68 ± 0.15", "unit": "A"},
      {"measurement": "inhibition at 39.06 µg/mL", "setting": "[3]; [4]", "value": 34, "unit": "%"},
      {"measurement": "inhibition at 39.06 µg/mL", "setting": "[3]; [5]", "value": 27, "unit": "%"},
      {"measurement": "inhibition at 78.12 µg/mL", "setting": "[3]; [6]", "value": 65, "unit": "%"},
      {"measurement": "inhibition at 78.12 µg/mL", "setting": "[3]; [7]", "value": 42, "unit": "%"},
      {"measurement": "inhibition at 156.25 µg/mL", "setting": "[3]; [8]", "value": 72, "unit": "%"},
      {"measurement": "inhibition at 156.25 µg/mL", "setting": "[3]; [9]", "value": 66, "unit": "%"},
      {"measurement": "IC50", "setting": "[3]; first of 2 experiments", "value": 63, "unit": "µg/mL"},
      {"measurement": "IC50", "setting": "[3]; second of 2 experiments", "value": 66, "unit": "µg/mL"}
    ]}
  ]
}
